Laboratory results: US10662210B2, “Compositions and methods comprising osmium for the treatment of cancers” (Massachusetts Institute of Technology, priority 2014, dated 2020)

How the values were obtained:
[1] = Water-octanol partition coefficient (log P), shake-flask method with GF-AAS; type: physicochemical; settings: room temperature, 50 μM
Method: Those of ordinary skill in the art would be knowledgeable of methods of determining the water-octanol partition coefficient of compounds. For example, the log P of a compound may be obtained using the shake-flask method and graphite furnace atomic absorption spectroscopy (GF-AAS). Briefly, in the shake-flask method, octanol is pre-saturated with water by overnight incubation with shaking of a biphasic mixture of the two at room temperature. A portion of 0.5 mL water containing 50 μM of the given compound is incubated with the pre-saturated octanol (0.5 mL) in a 1.5 mL tube. The tube is shaken at room temperature for 3 hours. The two phases are separated by centrifugation and the osmium content (concentration) in each phase is determined by GFAAS. The log P is then calculated using the formula below: log P=log 10[(concentration of osmium in the octanol layer)/(concentration of osmium in the water layer)].
The log P values were obtained using the shake-flask method and graphite furnace atomic absorption spectroscopy (GF-AAS). Octanol used in this experiment was pre-saturated with water by overnight incubation with shaking of a biphasic mixture of the two at room temperature. A portion of 0.5 mL water containing 50 μM of the given compound was incubated with the pre-saturated octanol (0.5 mL) in a 1.5 mL tube. The tube was shaken at room temperature for 3 h. The two phases were separated by centrifugation and the osmium content (concentration) in each phase was determined by GFAAS. All the experiments were carried out in triplicate. The log P was then calculated using the formula below: Log P=log 10[(conc. of osmium in the octanol layer)/(conc. of osmium in the water layer)].

[2] = system: pUC19 plasmid DNA; assay: Agarose gel electrophoresis of plasmid DNA; type: biochemical; settings: 24 h, 37° C.
Method: The osmium compounds were hypothesized to induce cell death through DNA interactions. Therefore, the interaction of 2 or 4 with pUC19 plasmid DNA was investigated using gel electrophoresis; the results of which are as shown in FIG. 6. As the concentration of 2 increased, there was a clear increase in the amount of nicked circular, and a concomitant decrease in the amount of supercoiled, plasmid DNA. At concentrations >250 μM, the bands in the gel smeared and then disappeared. […] The DNA binding kinetics of 2 and 4 were studied by measuring the amount of osmium bound to precipitated ct-DNA; the results of which are as shown in FIG. 7. The half-life of this reaction for 2 was 2 hours.
Plasmid DNA (pUC19) was kindly donated. The DNA binding ability of the osmium complexes was determined by monitoring the conversion of supercoiled plasmid DNA (form I) to nicked circular DNA (form II) using agarose gel electrophoresis. To probe the effect of Os-complex concentration, solutions containing […] of DNA and 0, 10, 20, 50, 100, 250, 500, and 1000 μM of the osmium complexes with a total reaction volume of 15 μL were incubated at 37° C. for 24 h. […] The DNA bands were analysed under UV light using a Flor-S reader (BioRad).

[3] = system: genomic DNA from A2780 cells; assay: Intracellular DNA osmium content; type: cell-based, human; settings: 10 μM, 12 h
Method: To gain further insight into the modes of action of 2 and 4, immunoblotting analyses were conducted to monitor changes in expression of biomarkers related to the DNA damage pathway (FIG. 8). […] This difference could be related to steric effects imposed by the phenyl groups in 4.
To measure the amount osmium on genomic DNA, ca. 1 million A2780 cells were treated with 10 μM of the complexes at 37° C. for 12 h. Then the media were removed, the cells were washed with PBS solution (1 mL×3), harvested, and centrifuged. The cellular pellet was suspended in DNAzol (1 mL, genomic DNA isolation reagent, MRC). The DNA was precipitated with ethanol (0.5 mL), washed with 75% ethanol (0.75 mL×3), and re-dissolved in 200 μL of 8 mM NaOH. The DNA concentration was determined by UV-visible spectroscopy, and osmium was quantified by GFAAS. The reported values are the average of at least three independent experiments with the error reported as the standard deviation.

[4] = system: A2780 cells; assay: Dual Annexin V staining/PI flow cytometry assay; type: cell-based, human; settings: 72 hours
Method: To have a more complete understanding of the cellular response induced by 2 or 4, their mode of cell killing was evaluated. Many clinically approved cancer drugs exert their cytotoxic effects through apoptosis, and so the features related to this pathway were monitored. Apoptotic cells underwent morphological changes that lead to cell membrane disorientation. […] Cells can undergo other forms of cell death such as necrosis and autophagy. To probe these pathways, cytotoxicity assays were carried out in the presence of […], chloroquine, and IM-54, respectively. Because both chloroquine and IM-54 had little effect on the potency of either of the osmium complexes, necrosis and autophagy were ruled out as possible death pathways. […] On the other hand, 4 initiated ER stress, culminating in p53 independent, caspase directed apoptosis (FIG. 4).
In order to monitor the cell cycle, flow cytometry studies were carried out. […] DNA content was measured on a FACSCalibur-HTS flow cytometer (BD Biosciences) using laser excitation at 488 nm and 20,000 events per sample were acquired. Cell cycle profiles were analysed using the ModFit software. […] The samples were kept on ice prior to being read on the FACSCalibur-HTS flow cytometer (BD Biosciences) and 20,000 events per sample were acquired. Cell populations were analysed using the FlowJo software (Tree Star).

| Compound | log P (water-octanol coefficient) [1] | effect on pUC19 DNA in gel electrophoresis [2] | Os/DNA ratio on genomic DNA [3] | occurrence of apoptosis (Annexin V/PI) [4] |
| --- | --- | --- | --- | --- |
| [N]#[Os]1([Cl])([Cl])([Cl])[N]2C=CC=c3ccc4c(c32)[N]1C=CC=4 [Complex 2, OsN(1,10-phenanthroline)Cl3] | 1.26 | induced conformational changes and degradation of circular DNA | about 21 pmol/μg | induced large populations of cells to undergo early and late stage apoptosis |
| [N]#[Os]1([Cl])([Cl])([Cl])[N]2C=CC(c3ccccc3)=c3ccc4c(c32)[N]1C=CC=4c1ccccc1 [Complex 4, OsN(4,7-diphenyl-1,10-phenanthroline)Cl3] | 1.84 | no visible effect | about 14 pmol/μg | induced large populations of cells to undergo early and late stage apoptosis |
